Results: the NIST ThermoML archive (doi:10.1021/je050429b)
Numbers after ± are expanded uncertainties.

Settings: Gas, Oscillating disk viscometry

CO [methanol]
Settings	viscosity [mPa·s]
297.41 K, Amount density=10.1 mol/m3	0.009532 ± 0.00049
297.43 K, Amount density=8.17 mol/m3	0.009551 ± 0.00049
297.64 K, Amount density=3.79 mol/m3	0.009594 ± 0.00049
297.92 K, Amount density=38.68 mol/m3	0.009555 ± 0.00049
298.16 K, Amount density=6.32 mol/m3	0.009594 ± 0.00049
298.54 K, Amount density=13.2 mol/m3	0.009579 ± 0.00049
298.71 K, Amount density=49.53 mol/m3	0.009576 ± 0.00049
299.79 K, Amount density=32.22 mol/m3	0.009602 ± 0.00049
299.92 K, Amount density=24.58 mol/m3	0.009618 ± 0.00049
301.53 K, Amount density=17.93 mol/m3	0.009672 ± 0.00049
310.88 K, Amount density=24.58 mol/m3	0.009948 ± 0.0005
311.12 K, Amount density=17.93 mol/m3	0.009959 ± 0.0005
311.23 K, Amount density=8.17 mol/m3	0.01002 ± 0.0005
311.6 K, Amount density=32.22 mol/m3	0.009969 ± 0.0005
311.6 K, Amount density=38.68 mol/m3	0.009971 ± 0.0005
312.25 K, Amount density=6.32 mol/m3	0.01008 ± 0.0005
312.54 K, Amount density=3.79 mol/m3	0.0101 ± 0.0005
313.89 K, Amount density=10.1 mol/m3	0.01008 ± 0.0005
314.18 K, Amount density=13.2 mol/m3	0.01008 ± 0.0005
314.2 K, Amount density=49.53 mol/m3	0.01004 ± 0.0005
324.75 K, Amount density=3.79 mol/m3	0.0105 ± 0.00052
324.77 K, Amount density=49.53 mol/m3	0.01037 ± 0.00051
324.78 K, Amount density=32.22 mol/m3	0.01038 ± 0.00051
325.15 K, Amount density=8.17 mol/m3	0.0105 ± 0.00052
325.22 K, Amount density=10.1 mol/m3	0.0105 ± 0.00052
325.59 K, Amount density=17.93 mol/m3	0.01046 ± 0.00051
325.76 K, Amount density=13.2 mol/m3	0.01049 ± 0.00052
325.91 K, Amount density=6.32 mol/m3	0.01054 ± 0.00052
325.98 K, Amount density=24.58 mol/m3	0.01042 ± 0.00051
326.88 K, Amount density=38.68 mol/m3	0.01044 ± 0.00051
338.47 K, Amount density=8.17 mol/m3	0.01095 ± 0.00053
338.62 K, Amount density=10.1 mol/m3	0.01094 ± 0.00053
338.66 K, Amount density=32.22 mol/m3	0.01083 ± 0.00052
338.69 K, Amount density=3.79 mol/m3	0.01098 ± 0.00053
338.72 K, Amount density=38.68 mol/m3	0.0108 ± 0.00052
338.81 K, Amount density=49.53 mol/m3	0.01077 ± 0.00052
339.25 K, Amount density=17.93 mol/m3	0.01094 ± 0.00053
339.34 K, Amount density=13.2 mol/m3	0.01096 ± 0.00053
339.77 K, Amount density=6.32 mol/m3	0.01101 ± 0.00053
340.14 K, Amount density=24.58 mol/m3	0.01092 ± 0.00053
352.35 K, Amount density=49.53 mol/m3	0.01125 ± 0.00054
352.62 K, Amount density=8.17 mol/m3	0.01143 ± 0.00054
352.86 K, Amount density=10.1 mol/m3	0.01142 ± 0.00054
352.91 K, Amount density=3.79 mol/m3	0.01148 ± 0.00054
352.93 K, Amount density=3.79 mol/m3	0.01144 ± 0.00054
353.05 K, Amount density=8.17 mol/m3	0.01146 ± 0.00054
353.06 K, Amount density=38.68 mol/m3	0.01132 ± 0.00054
353.18 K, Amount density=38.68 mol/m3	0.01134 ± 0.00054
353.2 K, Amount density=49.53 mol/m3	0.01127 ± 0.00054
353.22 K, Amount density=13.2 mol/m3	0.01143 ± 0.00054
353.26 K, Amount density=13.2 mol/m3	0.01143 ± 0.00054
353.3 K, Amount density=6.32 mol/m3	0.01148 ± 0.00054
353.44 K, Amount density=10.1 mol/m3	0.01147 ± 0.00054
353.58 K, Amount density=17.93 mol/m3	0.01143 ± 0.00054
353.71 K, Amount density=24.58 mol/m3	0.01142 ± 0.00054
353.78 K, Amount density=32.22 mol/m3	0.01139 ± 0.00054
355.04 K, Amount density=32.22 mol/m3	0.01143 ± 0.00054
355.05 K, Amount density=24.58 mol/m3	0.01143 ± 0.00054
355.5 K, Amount density=6.32 mol/m3	0.01152 ± 0.00055
355.67 K, Amount density=17.93 mol/m3	0.01148 ± 0.00055
366.59 K, Amount density=10.1 mol/m3	0.01189 ± 0.00056
366.82 K, Amount density=8.17 mol/m3	0.01191 ± 0.00056
366.84 K, Amount density=3.79 mol/m3	0.01191 ± 0.00056
366.93 K, Amount density=17.93 mol/m3	0.01188 ± 0.00056
366.99 K, Amount density=32.22 mol/m3	0.01184 ± 0.00055
367.1 K, Amount density=13.2 mol/m3	0.01189 ± 0.00056
367.81 K, Amount density=49.53 mol/m3	0.01182 ± 0.00055
367.84 K, Amount density=6.32 mol/m3	0.01195 ± 0.00056
367.87 K, Amount density=38.68 mol/m3	0.01184 ± 0.00055
368.03 K, Amount density=24.58 mol/m3	0.0119 ± 0.00056
380.86 K, Amount density=10.1 mol/m3	0.01238 ± 0.00057
380.97 K, Amount density=13.2 mol/m3	0.01236 ± 0.00057
381.27 K, Amount density=3.79 mol/m3	0.0124 ± 0.00057
381.27 K, Amount density=49.53 mol/m3	0.0123 ± 0.00057
381.38 K, Amount density=8.17 mol/m3	0.01241 ± 0.00057
381.53 K, Amount density=17.93 mol/m3	0.01238 ± 0.00057
381.9 K, Amount density=38.68 mol/m3	0.01233 ± 0.00057
381.92 K, Amount density=32.22 mol/m3	0.01237 ± 0.00057
382.15 K, Amount density=6.32 mol/m3	0.01244 ± 0.00057
383.55 K, Amount density=24.58 mol/m3	0.01243 ± 0.00057
394.63 K, Amount density=10.1 mol/m3	0.01285 ± 0.00059
394.76 K, Amount density=8.17 mol/m3	0.01286 ± 0.00059
394.88 K, Amount density=49.53 mol/m3	0.01278 ± 0.00058
395.16 K, Amount density=32.22 mol/m3	0.01282 ± 0.00059
395.18 K, Amount density=24.58 mol/m3	0.01282 ± 0.00059
395.23 K, Amount density=17.93 mol/m3	0.01285 ± 0.00059
395.37 K, Amount density=38.68 mol/m3	0.01281 ± 0.00058
395.39 K, Amount density=3.79 mol/m3	0.01287 ± 0.00059
395.4 K, Amount density=13.2 mol/m3	0.01285 ± 0.00059
396.23 K, Amount density=6.32 mol/m3	0.01291 ± 0.00059
409.39 K, Amount density=13.2 mol/m3	0.01333 ± 0.0006
409.51 K, Amount density=10.1 mol/m3	0.01336 ± 0.0006
409.75 K, Amount density=24.58 mol/m3	0.01333 ± 0.0006
410.18 K, Amount density=32.22 mol/m3	0.01333 ± 0.0006
410.35 K, Amount density=38.68 mol/m3	0.01331 ± 0.0006
411.3 K, Amount density=3.79 mol/m3	0.01343 ± 0.0006
411.31 K, Amount density=6.32 mol/m3	0.01342 ± 0.0006
411.32 K, Amount density=49.53 mol/m3	0.01335 ± 0.0006
412.01 K, Amount density=17.93 mol/m3	0.01338 ± 0.0006
412.33 K, Amount density=8.17 mol/m3	0.01346 ± 0.0006
423.31 K, Amount density=8.17 mol/m3	0.01382 ± 0.00062
423.5 K, Amount density=3.79 mol/m3	0.01383 ± 0.00062
423.52 K, Amount density=49.53 mol/m3	0.01376 ± 0.00061
423.77 K, Amount density=13.2 mol/m3	0.01383 ± 0.00062
423.88 K, Amount density=32.22 mol/m3	0.0138 ± 0.00061
423.96 K, Amount density=10.1 mol/m3	0.01385 ± 0.00062
424.38 K, Amount density=17.93 mol/m3	0.01383 ± 0.00062
424.41 K, Amount density=24.58 mol/m3	0.01382 ± 0.00062
424.73 K, Amount density=6.32 mol/m3	0.01388 ± 0.00062
425.1 K, Amount density=38.68 mol/m3	0.0138 ± 0.00061
437.6 K, Amount density=10.1 mol/m3	0.01431 ± 0.00063
437.81 K, Amount density=8.17 mol/m3	0.01431 ± 0.00063
438.41 K, Amount density=13.2 mol/m3	0.01432 ± 0.00063
439.16 K, Amount density=32.22 mol/m3	0.01431 ± 0.00063
439.2 K, Amount density=24.58 mol/m3	0.01432 ± 0.00063
439.47 K, Amount density=17.93 mol/m3	0.01434 ± 0.00063
439.56 K, Amount density=49.53 mol/m3	0.0143 ± 0.00063
440.07 K, Amount density=6.32 mol/m3	0.01441 ± 0.00063
440.61 K, Amount density=3.79 mol/m3	0.01441 ± 0.00063
441.61 K, Amount density=38.68 mol/m3	0.01437 ± 0.00063
466.95 K, Amount density=24.58 mol/m3	0.01528 ± 0.00066
467.33 K, Amount density=10.1 mol/m3	0.0153 ± 0.00066
467.34 K, Amount density=38.68 mol/m3	0.01528 ± 0.00066
467.49 K, Amount density=49.53 mol/m3	0.01528 ± 0.00066
467.62 K, Amount density=32.22 mol/m3	0.01528 ± 0.00066
467.74 K, Amount density=13.2 mol/m3	0.01531 ± 0.00066
468.08 K, Amount density=17.93 mol/m3	0.01532 ± 0.00066
468.85 K, Amount density=3.79 mol/m3	0.01537 ± 0.00066
496.21 K, Amount density=38.68 mol/m3	0.01626 ± 0.00069
496.4 K, Amount density=8.17 mol/m3	0.01627 ± 0.00069
496.41 K, Amount density=17.93 mol/m3	0.01629 ± 0.00069
496.43 K, Amount density=13.2 mol/m3	0.01627 ± 0.00069
496.44 K, Amount density=24.58 mol/m3	0.01629 ± 0.00069
496.48 K, Amount density=49.53 mol/m3	0.01625 ± 0.00069
496.56 K, Amount density=10.1 mol/m3	0.01629 ± 0.00069
496.65 K, Amount density=3.79 mol/m3	0.01631 ± 0.00069
496.97 K, Amount density=32.22 mol/m3	0.0163 ± 0.00069
525.14 K, Amount density=49.53 mol/m3	0.01724 ± 0.00072
525.41 K, Amount density=3.79 mol/m3	0.01727 ± 0.00072
525.42 K, Amount density=8.17 mol/m3	0.01727 ± 0.00072
526.17 K, Amount density=32.22 mol/m3	0.01727 ± 0.00072
526.39 K, Amount density=13.2 mol/m3	0.01729 ± 0.00072
526.84 K, Amount density=24.58 mol/m3	0.0173 ± 0.00072
527.02 K, Amount density=38.68 mol/m3	0.01727 ± 0.00072
527.99 K, Amount density=17.93 mol/m3	0.01734 ± 0.00072
546.79 K, Amount density=8.17 mol/m3	0.018 ± 0.00074
546.84 K, Amount density=13.2 mol/m3	0.01798 ± 0.00074
547.13 K, Amount density=3.79 mol/m3	0.01802 ± 0.00074
547.3 K, Amount density=32.22 mol/m3	0.01801 ± 0.00074
547.49 K, Amount density=38.68 mol/m3	0.018 ± 0.00074
548.04 K, Amount density=49.53 mol/m3	0.01803 ± 0.00074
548.52 K, Amount density=17.93 mol/m3	0.01806 ± 0.00074
567.4 K, Amount density=13.2 mol/m3	0.01868 ± 0.00076
567.53 K, Amount density=32.22 mol/m3	0.01872 ± 0.00076
568.11 K, Amount density=38.68 mol/m3	0.01872 ± 0.00076
569.26 K, Amount density=3.79 mol/m3	0.01879 ± 0.00076
569.93 K, Amount density=49.53 mol/m3	0.01875 ± 0.00076
571.83 K, Amount density=17.93 mol/m3	0.01886 ± 0.00077
596.93 K, Amount density=13.2 mol/m3	0.01969 ± 0.00079
597.12 K, Amount density=32.22 mol/m3	0.01975 ± 0.00079
597.15 K, Amount density=17.93 mol/m3	0.01973 ± 0.00079
597.28 K, Amount density=49.53 mol/m3	0.01971 ± 0.00079
597.6 K, Amount density=3.79 mol/m3	0.01977 ± 0.00079
598.6 K, Amount density=38.68 mol/m3	0.01979 ± 0.00079
602.56 K, Amount density=8.17 mol/m3	0.01994 ± 0.0008
